Measurements: patent US10961238B2, “Modulators of hedgehog (Hh) signaling pathway” (E-THERAPEUTICS PLC, priority 2016, dated 2021)

Tested on: C3H10T1/2 cells
Experiment: C3H assay: differentiation of C3H10T1/2 cells by mSHH, measurement of alkaline phosphatase
Format: cell-based, mouse
Conditions: Mus musculus, C3H 10T1/2; C3H10T1/2 cells stimulated with mSHH for 72 hours; alkaline phosphatase activity; read-out: IC50 Ranges

IC50, 0.1 to 1 µM:
CN(C(=O)N1CC(S(=O)(=O)N2CCC(c3ccncc3)CC2)C1)C(C)(C)C [Compound 31, N-tert-butyl-N-methyl-3-(4-pyridin-4-ylpiperidin-1-yl)sulfonylaze-tidine-1-carboxamide]
CC1(C)COCC(C)(C)N1C(=O)N1CC(S(=O)(=O)N2CCC(c3ccncc3)CC2)C1 [Compound 32, [3-(4-pyridin-4-ylpiperidin-1-yl)sulfonylaze-tidin-1-yl]-(3,3,5,5-tetramethylmor-pholin-4-yl)methanone]
C[C@@H]1CN(C(=O)N2CC(S(=O)(=O)N3CCC(c4cnc5occc5c4)CC3)C2)C[C@H](C)O1 [Compound 35, [(2R,6S)-2,6-dimethylmorpholin-4-yl]-[3-(4-furo[2,3-b]pyridin-5-ylpiperidin-1-yl)sulfonylaze-tidin-1-yl]methanone]
O=C(OC1CCCCC1)N1CC(S(=O)(=O)N2CCC(c3cnc4occc4c3)CC2)C1 [Compound 38, cyclohexyl 3-(4-furo[2,3-b]pyridin-5-ylpiperidin-1-yl)sulfonylaze-tidine-1-carboxylate]

IC50, 1 to 10 µM:
O=C(OC1CCOCC1)N1CC(S(=O)(=O)N2CCC(c3ccncc3)CC2)C1 [Compound 29, oxan-4-yl 3-(4-pyridin-4-ylpiperidin-1-yl)sulfonylaze-tidine-1-carboxylate]
O=C(OCC1CCCO1)N1CC(S(=O)(=O)N2CCC(c3ccncc3)CC2)C1 (centres unmarked) [Compound 30, (oxolan-2-yl)methyl 3-(4-pyridin-4-ylpiperidin-1-yl)sulfonylaze-tidine-1-carboxylate]
Cc1noc(C)c1NC(=O)N1CC(S(=O)(=O)N2CCC(c3cnc4c(c3)CCO4)CC2)C1 [Compound 36, 3-[4-(2,3-dihydrofuro[2,3-b]pyridin-5-yl)piperidin-1-yl]sulfonyl-N-(3,5-dimethyl-1,2-oxazol-4-yl)azetidine-1-carboxamide]
Cc1noc(C)c1NC(=O)N1CC(S(=O)(=O)N2CCC(c3cnc4occc4c3)CC2)C1 [Compound 37, N-(3,5-dimethyl-1,2-oxazol-4-yl)-3-(4-furo[2,3-b]pyridin-5-ylpiperidin-1-yl)sulfonylaze-tidine-1-carboxamide]
O=C(OC1CCCCC1)N1CC(S(=O)(=O)N2CCC(c3cn(C(=O)OC4CCCCC4)c4cccnc34)CC2)C1 [Compound 40, cyclohexyl 3-[1-(1-cyclohexyloxycarbonylazetidin-3-yl)sulfonylpiper-idin-4-yl]pyrrolo [3,2-b]pyridine-1-carboxylate]
Cc1noc(C)c1NC(=O)N1CC(S(=O)(=O)N2CCC(c3cn(C)c4nccnc34)CC2)C1 [Compound 42, N-(3,5-dimethyl-1,2-oxazol-4-yl)-3-[4-(5-methylpyrrolo [2,3-b]pyrazin-7-yl)piperidin-1-yl]sulfonylaze-tidine-1-carboxamide]

IC50, 0.01 to 0.1 µM:
CC(C)(C)CC(C)(C)NC(=O)N1CC(S(=O)(=O)N2CCC(c3ccncc3)CC2)C1 [Compound 33, 3-(4-pyridin-4-ylpiperidin-1-yl)sulfonyl-N-(2,4,4-trimethylpentan-2-yl)azetidine-1-carboxamide]
Cc1noc(C)c1NC(=O)N1CC(S(=O)(=O)N2CCC(c3c[nH]c4cccnc34)CC2)C1 [Compound 39, N-(3,5-dimethyl-1,2-oxazol-4-yl)-3-[4-(1H-pyrrolo[3,2-b]pyridin-3-yl)piperidin-1-yl]sulfonylaze-tidine-1-carboxamide]
O=C(OC1CCCCC1)N1CC(S(=O)(=O)N2CCC(c3c[nH]c4cccnc34)CC2)C1 [Compound 41, cyclohexyl 3-[4-(1H-pyrrolo[3,2-b]pyridin-3-yl)piperidin-1-yl]sulfonylaze-tidine-1-carboxylate]
Cc1noc(C)c1NC(=O)N1CC(S(=O)(=O)N2CCC(c3c[nH]c4nccnc34)CC2)C1 [Compound 43, N-(3,5-dimethyl-1,2-oxazol-4-yl)-3-[4-(5H-pyrrolo [2,3-b]pyrazin-7-yl)piperidin-1-yl]sulfonylaze-tidine-1-carboxamide]
